Reference: ChEMBL document CHEMBL1201862, “PubChem BioAssay data set” (2004)
Calls of active or inactive are those of the source.

How the values were obtained:
[1] = target: Ras and Rab interactor 1/Tyrosine-protein kinase ABL1 (Homo sapiens, UniProt P00519+Q13671); type: functional;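 note: biochemical TR-FRET dose-response test measuring inhibition of binding between Rin1 and Abl proteins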
[2] = target: SWI/SNF-related matrix-associated actin-dependent regulator of chromatin subfamily A member 2 (Homo sapiens, UniProt P51531); assay: Luminescence-based cell-based high throughput dose response assay to identify activators of the function of SWI/SNF related, matrix associated, actin dependent regulator of chromatin, subfamily a, member 2 (SMARCA2, BRM).; type: functional
[3] = target: T1, Polyadenylate-binding protein 1 (Homo sapiens, UniProt P11940); assay: MLLE domain peptide-binding blockers, IC50 – biochemical, fluorescence polarization, FITC-PAM2 peptide, dose response (AID 602259); type: functional; conditions: read-out: IC50_Mean
T1 sequence (P11940 whole entry, the tested form may be a part): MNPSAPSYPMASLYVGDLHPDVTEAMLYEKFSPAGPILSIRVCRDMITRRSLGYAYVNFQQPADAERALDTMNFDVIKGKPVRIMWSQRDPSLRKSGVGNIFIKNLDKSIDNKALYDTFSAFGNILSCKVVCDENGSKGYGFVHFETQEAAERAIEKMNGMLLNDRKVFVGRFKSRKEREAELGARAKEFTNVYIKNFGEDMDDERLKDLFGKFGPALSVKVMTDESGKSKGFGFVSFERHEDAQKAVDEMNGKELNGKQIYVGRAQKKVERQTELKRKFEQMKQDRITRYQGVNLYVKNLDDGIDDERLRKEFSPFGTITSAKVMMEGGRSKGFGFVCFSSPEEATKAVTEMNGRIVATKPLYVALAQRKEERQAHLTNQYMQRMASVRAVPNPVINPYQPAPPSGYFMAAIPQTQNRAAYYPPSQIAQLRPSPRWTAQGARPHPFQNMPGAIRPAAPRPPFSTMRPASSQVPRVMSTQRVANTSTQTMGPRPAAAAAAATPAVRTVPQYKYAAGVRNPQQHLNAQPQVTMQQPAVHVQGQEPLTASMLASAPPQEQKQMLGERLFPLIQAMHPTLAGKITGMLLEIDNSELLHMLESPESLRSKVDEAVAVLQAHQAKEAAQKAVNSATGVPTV

[4] = Counterscreen for activators of the function of SWI/SNF related, matrix associated, actin dependent regulator of chromatin, subfamily a, member 2 (SMARCA2, BRM): Luminescence-based cell-based high throughput dose response assay to identify non-selective compounds using the VP16 reporter assay.; type: functional
[5] = target: T2, Zinc finger protein mex-5 (Caenorhabditis elegans, UniProt Q9XUB2); assay: potency of MEX-5 RNA-binding blockers – biochemical, C. elegans, fluorescence polarization, dose response (AID 1960)
T2 sequence (Q9XUB2 whole entry): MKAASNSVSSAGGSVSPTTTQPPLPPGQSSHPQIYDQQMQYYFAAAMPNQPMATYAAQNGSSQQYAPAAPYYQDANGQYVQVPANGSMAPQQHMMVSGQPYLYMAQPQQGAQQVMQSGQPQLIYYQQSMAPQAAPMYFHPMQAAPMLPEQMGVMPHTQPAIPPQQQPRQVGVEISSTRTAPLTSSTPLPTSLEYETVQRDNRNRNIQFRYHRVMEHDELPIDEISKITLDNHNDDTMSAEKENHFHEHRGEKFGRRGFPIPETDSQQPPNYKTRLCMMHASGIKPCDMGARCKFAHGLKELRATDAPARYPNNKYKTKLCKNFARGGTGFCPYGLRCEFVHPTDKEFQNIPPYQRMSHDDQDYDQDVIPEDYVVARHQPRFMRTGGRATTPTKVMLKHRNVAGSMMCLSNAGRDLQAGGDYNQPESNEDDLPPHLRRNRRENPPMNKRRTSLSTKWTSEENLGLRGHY

[6] = target: T3, RNA-binding protein pos-1 (Caenorhabditis elegans, UniProt G5EF15); assay: disruptors of C. elegans POS-1 RNA interaction – biochemical, fluorescence polarization, dose response (AID 1964);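 note: purified POS-1 fused to maltose binding protein made in E. coli; potency of compounds blocking POS-1 binding to fluorescent RNA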
T3 sequence (G5EF15 whole entry): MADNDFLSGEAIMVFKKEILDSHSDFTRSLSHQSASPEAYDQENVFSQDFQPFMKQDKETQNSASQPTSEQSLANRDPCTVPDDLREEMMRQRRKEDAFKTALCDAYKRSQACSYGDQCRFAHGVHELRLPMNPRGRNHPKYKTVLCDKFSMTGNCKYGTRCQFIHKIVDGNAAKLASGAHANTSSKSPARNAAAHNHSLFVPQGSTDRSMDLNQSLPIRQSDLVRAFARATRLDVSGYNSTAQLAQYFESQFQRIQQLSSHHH

[7] = target: T1, Polyadenylate-binding protein 1; assay: MLLE binding blockers, Cy5 peptide tracer – biochemical, fluorescence polarization, Cy5-PAM2 peptide, secondary, miRNA deadenylation inhibitor project, dose response (AID 602260); type: functional; conditions: read-out: IC50_Mean
[8] = blockers of HIV-1 ZM109 envelope-driven cell-cell fusion – HeLa effector, CEM target cells, luciferase, cherry-pick, dose response (AID 652058); type: functional, cell-based;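 note: luciferase signal from HIV-1 Env mediated cell-cell fusion of effector and target cells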
[9] = HIV-1 AD8 envelope cell-cell fusion blockers – cherry-pick, dose response (AID 652062); type: functional, cell-based;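 note: luciferase signal from cell-cell fusion driven by HIV-1 clade B AD8 Env; potency is for inhibitors of fusion seen as a drop in luminescence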
[10] = off-target signal loss in HeLa-CEM21 co-culture – HeLa F-luc CTL cells, cherry-picked, counter-screen for HIV-1 Env fusion inhibitor project, dose response (AID 652040); type: functional, cell-based;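 note: potency for signal decrease marking cytotoxic or nonspecific inhibition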
[11] = blockers of HIV-1 envelope-mediated cell-cell fusion – cherry-pick, dose response (AID 652057); type: functional, cell-based
[12] = viability loss in CEM21 cells – cell-based, CellTiter-Glo luminescence, cherry-picked, cytotoxicity control for viral fusion inhibitor project, dose response (AID 652042); type: functional;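 note: potency for signal decrease meaning cytotoxicity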
INS1 = assay: INS-1E survival protection against cytokine death – cell-based, luminescence, retest, dose response (AID 449756); type: functional; conditions: Rattus norvegicus;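 note: cell death triggered by IL-1 beta plus TNF-alpha plus IFN-gamma mixture; protective hits raise ATP signal compared with cytokine alone wells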
[13] = target: T4, Apoptotic protease-activating factor 1 (Homo sapiens, UniProt O14727); type: functional
T4 sequence (O14727 whole entry): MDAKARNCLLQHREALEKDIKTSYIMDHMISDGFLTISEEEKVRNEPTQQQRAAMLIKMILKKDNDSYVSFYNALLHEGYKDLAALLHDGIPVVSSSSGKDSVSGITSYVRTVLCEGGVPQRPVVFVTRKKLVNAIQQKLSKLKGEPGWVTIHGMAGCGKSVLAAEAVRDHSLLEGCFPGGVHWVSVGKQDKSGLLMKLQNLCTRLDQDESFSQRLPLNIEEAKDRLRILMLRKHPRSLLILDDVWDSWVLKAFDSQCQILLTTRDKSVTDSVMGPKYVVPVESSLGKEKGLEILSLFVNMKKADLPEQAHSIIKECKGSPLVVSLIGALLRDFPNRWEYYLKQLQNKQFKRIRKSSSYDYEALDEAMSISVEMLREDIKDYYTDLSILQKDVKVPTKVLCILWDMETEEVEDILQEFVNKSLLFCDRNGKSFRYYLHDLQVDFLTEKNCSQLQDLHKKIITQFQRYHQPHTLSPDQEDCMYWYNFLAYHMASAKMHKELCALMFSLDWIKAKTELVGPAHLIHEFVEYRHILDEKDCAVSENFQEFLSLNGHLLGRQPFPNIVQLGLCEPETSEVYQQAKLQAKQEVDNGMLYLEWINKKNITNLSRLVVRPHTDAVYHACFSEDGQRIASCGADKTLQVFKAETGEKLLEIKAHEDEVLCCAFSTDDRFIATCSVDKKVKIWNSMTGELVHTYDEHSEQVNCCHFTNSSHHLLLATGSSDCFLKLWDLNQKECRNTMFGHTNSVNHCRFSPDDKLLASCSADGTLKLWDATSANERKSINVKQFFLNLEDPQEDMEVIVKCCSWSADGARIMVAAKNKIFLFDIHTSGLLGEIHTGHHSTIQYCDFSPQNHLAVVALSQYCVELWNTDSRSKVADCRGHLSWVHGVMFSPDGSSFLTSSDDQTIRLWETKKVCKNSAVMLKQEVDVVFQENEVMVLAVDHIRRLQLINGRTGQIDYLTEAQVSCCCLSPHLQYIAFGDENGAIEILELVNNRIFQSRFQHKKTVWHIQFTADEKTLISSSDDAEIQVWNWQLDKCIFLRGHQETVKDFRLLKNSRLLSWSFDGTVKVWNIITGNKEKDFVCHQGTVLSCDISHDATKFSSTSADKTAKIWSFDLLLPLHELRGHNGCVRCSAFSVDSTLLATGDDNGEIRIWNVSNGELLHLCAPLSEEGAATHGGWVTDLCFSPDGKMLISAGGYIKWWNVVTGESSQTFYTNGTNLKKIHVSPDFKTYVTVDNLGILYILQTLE

Insulin-degrading enzyme [14] = target: T5, Insulin-degrading enzyme (Homo sapiens, UniProt P14735); assay: recombinant IDE activation, cell-free – biochemical, fluorescence polarization, counter-screen for IDE activator project, dose response (AID 588681)
T5 sequence (P14735 whole entry): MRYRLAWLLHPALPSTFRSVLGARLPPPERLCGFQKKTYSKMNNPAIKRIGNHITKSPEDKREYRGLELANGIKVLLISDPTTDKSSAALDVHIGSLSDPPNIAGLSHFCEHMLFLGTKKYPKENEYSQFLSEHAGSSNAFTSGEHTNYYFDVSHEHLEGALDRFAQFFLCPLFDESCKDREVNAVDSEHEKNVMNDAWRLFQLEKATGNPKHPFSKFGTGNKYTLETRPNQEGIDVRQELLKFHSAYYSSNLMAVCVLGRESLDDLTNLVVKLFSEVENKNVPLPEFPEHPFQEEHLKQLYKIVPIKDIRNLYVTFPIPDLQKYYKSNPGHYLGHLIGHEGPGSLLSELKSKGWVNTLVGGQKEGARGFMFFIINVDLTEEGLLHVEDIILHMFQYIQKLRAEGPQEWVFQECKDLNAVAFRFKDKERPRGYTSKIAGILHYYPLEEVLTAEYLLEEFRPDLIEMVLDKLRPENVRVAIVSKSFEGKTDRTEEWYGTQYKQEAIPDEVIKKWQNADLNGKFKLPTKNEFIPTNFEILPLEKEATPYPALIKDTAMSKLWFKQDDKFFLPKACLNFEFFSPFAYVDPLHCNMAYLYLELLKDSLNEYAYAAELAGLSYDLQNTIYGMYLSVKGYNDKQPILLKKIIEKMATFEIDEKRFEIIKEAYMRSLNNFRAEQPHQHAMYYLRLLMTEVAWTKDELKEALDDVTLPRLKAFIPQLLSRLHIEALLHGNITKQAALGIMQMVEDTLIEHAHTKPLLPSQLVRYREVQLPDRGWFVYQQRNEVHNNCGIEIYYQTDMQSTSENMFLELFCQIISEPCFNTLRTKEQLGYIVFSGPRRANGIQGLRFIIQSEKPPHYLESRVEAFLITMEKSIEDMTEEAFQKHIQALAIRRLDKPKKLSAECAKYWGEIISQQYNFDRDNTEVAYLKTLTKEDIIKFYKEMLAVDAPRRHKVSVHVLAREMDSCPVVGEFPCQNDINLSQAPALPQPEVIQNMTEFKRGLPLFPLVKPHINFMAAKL

HEK293 [15] = assay: optical interference in Abeta FP readout, dose response, artefact control for IDE activator project, biochemical, fluorescence polarization (AID 588442); type: functional, cell-based; conditions: Homo sapiens
Insulin-degrading enzyme [16] = target: T5, Insulin-degrading enzyme; assay: cellular IDE activation of Abeta substrate cleavage – fluorescence polarization, HEK cells, dose response (AID 588439); type: functional, cell-based
HEK293 [17] = assay: membrane integrity loss in HEK cells – cell-based, fluorescence, cytotoxicity control for IDE activator project, dose response (AID 588440); type: functional; conditions: Homo sapiens;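 note: cytotoxicity by LDH release measuring loss of membrane integrity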
Melanocortin receptor 4 = Melanocortin receptor 4 (Homo sapiens, UniProt P32245); type: functional, cell-based;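 note: Cell-based assay with luminescence read-out, confirmatory dose-response testing for agonist activity of biased ligands at MC4R; human U2OS cells with tagged receptor and beta-arrestin; potency of agonists that increase receptor coupling to beta-arrestin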
Sequence of Melanocortin receptor 4 (P32245 whole entry): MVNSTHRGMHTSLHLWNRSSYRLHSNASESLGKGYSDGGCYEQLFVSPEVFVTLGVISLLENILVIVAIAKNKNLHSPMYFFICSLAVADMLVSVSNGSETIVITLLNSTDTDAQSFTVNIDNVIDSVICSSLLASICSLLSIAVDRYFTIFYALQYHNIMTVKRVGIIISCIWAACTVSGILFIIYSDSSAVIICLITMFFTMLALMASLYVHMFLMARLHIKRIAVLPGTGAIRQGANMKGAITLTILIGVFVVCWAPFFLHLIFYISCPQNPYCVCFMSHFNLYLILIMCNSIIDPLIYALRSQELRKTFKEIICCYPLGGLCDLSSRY

[18] = OVCAR-3 cell viability loss – plate reader, dry powder samples, PAX8 inhibitor project, dose response (AID 743044); type: functional, cell-based
[19] = toxicity to human hepatoma HepG2 cells – cell-based, cherry-picked samples, cytotoxicity control, dose response (AID 1159577); type: functional
[20] = P. falciparum Dd2 growth inhibitors, dose response, SYBR Green, cherry-picked samples (AID 1159567); type: functional, cell-based
[21] = IGROV1 cell killing – plate reader, dry powder samples, PAX8 inhibitor project, dose response (AID 743043); type: functional, cell-based; conditions: IGROV-1
Paired box protein Pax-8 = Paired box protein Pax-8 (Homo sapiens, UniProt Q06710); assay: PAX8 transcriptional activity inhibition in RMG-I – RMG-I cells, luciferase, cherry-pick, dose response (AID 687027); type: functional, cell-based;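 note: luciferase reporter driven by Pax8 target thyroperoxidase promoter measured by SteadyGlo luminescence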
Sequence of Paired box protein Pax-8 (Q06710 whole entry): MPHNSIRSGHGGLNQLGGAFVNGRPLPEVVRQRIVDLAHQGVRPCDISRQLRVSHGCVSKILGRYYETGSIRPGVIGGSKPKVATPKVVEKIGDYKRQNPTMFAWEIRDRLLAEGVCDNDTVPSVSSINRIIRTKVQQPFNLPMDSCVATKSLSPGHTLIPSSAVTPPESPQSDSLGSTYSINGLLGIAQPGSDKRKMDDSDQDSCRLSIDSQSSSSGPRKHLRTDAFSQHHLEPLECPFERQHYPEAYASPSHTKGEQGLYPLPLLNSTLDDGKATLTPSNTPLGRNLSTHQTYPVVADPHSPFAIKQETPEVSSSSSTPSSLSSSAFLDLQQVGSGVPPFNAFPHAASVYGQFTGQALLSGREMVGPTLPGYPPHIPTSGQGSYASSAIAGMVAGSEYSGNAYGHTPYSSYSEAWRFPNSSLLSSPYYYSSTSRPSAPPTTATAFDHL

[22] = target: Aryl hydrocarbon receptor (Homo sapiens, UniProt P35869); conditions: Potency;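 note: confirmatory quantitative high-throughput screen measuring activation of the AhR signaling pathway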
Sequence of Aryl hydrocarbon receptor (P35869 whole entry): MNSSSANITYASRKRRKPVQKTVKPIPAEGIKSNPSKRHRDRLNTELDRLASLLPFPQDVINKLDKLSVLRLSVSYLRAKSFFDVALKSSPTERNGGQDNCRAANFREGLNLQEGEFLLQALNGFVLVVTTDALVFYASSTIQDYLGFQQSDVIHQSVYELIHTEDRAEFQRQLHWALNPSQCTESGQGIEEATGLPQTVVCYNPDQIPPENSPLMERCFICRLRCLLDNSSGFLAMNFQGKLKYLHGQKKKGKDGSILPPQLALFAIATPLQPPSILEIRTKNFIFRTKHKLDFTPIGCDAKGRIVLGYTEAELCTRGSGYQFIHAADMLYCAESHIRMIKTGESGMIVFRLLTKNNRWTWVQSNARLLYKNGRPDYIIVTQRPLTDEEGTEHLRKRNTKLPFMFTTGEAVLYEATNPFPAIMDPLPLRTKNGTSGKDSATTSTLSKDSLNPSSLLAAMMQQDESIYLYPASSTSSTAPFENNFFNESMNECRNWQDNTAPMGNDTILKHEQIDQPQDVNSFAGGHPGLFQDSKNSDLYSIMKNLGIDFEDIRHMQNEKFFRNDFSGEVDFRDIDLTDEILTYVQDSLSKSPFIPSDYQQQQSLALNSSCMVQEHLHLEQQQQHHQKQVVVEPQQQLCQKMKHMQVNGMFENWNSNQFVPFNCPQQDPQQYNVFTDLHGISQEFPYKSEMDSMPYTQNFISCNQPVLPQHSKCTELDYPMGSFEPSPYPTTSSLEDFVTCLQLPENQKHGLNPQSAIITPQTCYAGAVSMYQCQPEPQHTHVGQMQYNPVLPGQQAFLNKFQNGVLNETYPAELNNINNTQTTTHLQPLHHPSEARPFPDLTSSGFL

P388/ADR = assay: cells; type: functional; conditions: Mus musculus
P388 = assay: cells; type: functional; conditions: Mus musculus
SN12K1 = assay: cells; type: functional; conditions: Homo sapiens

Sequence of Ras and Rab interactor 1/Tyrosine-protein kinase ABL1 (P00519 whole entry): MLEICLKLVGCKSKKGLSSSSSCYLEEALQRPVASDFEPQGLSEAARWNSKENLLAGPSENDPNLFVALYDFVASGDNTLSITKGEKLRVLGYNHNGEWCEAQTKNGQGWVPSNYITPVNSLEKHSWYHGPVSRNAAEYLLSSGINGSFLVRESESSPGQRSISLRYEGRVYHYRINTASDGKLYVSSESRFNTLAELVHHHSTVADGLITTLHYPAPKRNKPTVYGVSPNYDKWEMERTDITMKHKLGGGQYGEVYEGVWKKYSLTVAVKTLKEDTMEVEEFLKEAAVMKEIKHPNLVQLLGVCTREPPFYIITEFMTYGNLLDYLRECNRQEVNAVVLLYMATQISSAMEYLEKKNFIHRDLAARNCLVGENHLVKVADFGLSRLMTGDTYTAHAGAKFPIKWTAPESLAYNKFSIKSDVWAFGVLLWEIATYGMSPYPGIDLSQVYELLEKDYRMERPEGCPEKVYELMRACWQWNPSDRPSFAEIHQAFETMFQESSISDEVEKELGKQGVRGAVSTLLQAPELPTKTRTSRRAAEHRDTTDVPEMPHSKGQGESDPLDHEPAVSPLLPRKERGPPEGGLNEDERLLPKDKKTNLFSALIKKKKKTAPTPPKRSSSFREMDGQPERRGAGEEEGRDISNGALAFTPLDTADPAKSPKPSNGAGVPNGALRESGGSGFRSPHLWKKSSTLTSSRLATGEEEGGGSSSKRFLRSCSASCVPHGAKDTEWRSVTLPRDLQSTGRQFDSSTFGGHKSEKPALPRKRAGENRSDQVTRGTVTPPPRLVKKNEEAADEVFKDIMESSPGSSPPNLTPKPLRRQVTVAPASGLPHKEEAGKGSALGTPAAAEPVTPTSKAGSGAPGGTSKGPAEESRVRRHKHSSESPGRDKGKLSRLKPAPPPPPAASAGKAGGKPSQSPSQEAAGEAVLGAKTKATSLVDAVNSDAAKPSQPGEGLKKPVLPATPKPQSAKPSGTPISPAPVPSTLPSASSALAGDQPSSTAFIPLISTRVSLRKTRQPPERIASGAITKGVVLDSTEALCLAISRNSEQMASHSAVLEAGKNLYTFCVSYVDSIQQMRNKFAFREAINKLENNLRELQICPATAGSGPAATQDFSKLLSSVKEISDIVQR
Sequence of Ras and Rab interactor 1/Tyrosine-protein kinase ABL1 (Q13671 whole entry): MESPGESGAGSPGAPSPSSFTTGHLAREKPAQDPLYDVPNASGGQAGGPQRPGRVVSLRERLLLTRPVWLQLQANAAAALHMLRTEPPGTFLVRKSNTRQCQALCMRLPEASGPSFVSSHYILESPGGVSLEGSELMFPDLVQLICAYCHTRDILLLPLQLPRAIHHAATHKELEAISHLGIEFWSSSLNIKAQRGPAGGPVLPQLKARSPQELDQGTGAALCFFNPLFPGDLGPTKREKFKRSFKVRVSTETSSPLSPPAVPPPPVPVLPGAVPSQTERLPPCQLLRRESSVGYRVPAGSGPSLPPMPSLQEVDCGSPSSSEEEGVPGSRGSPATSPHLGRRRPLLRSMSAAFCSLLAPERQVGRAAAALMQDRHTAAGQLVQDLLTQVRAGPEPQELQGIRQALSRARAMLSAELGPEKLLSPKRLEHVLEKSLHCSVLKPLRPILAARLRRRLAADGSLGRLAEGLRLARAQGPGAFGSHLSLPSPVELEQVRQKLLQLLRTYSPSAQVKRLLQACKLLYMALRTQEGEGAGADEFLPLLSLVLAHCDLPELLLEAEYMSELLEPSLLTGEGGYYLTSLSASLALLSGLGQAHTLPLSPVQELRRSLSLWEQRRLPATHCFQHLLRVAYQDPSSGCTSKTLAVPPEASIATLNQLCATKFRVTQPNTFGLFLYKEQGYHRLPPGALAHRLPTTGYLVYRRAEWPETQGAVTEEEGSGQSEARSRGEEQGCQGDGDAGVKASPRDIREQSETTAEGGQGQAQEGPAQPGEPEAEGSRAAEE

COc1cccc(CSc2nnc(CSc3nc4nc(C)cc(C)n4n3)s2)c1
IC50 [1]: 7.8 µM (active)

CN(C)CCCN1C(=O)c2cccc3c(Br)ccc(c23)C1=O
EC50 [2]: > 10.1 µM (inactive)
IC50 [3]: 29.3 µM (inactive)
EC50 [4]: > 91.2 µM (inactive)
EC50 [5]: 16.7 µM (active)
EC50 [6]: 22.1 µM (active)
IC50 [7]: > 66 µM (inactive)

COc1cc(CNC(C)c2ccccc2)cc(Cl)c1OCC(=O)Nc1ccccc1 (centres undefined)
AC50 [8]: 2.76 µM (active)
AC50 [9]: 3.78 µM (active)
AC50 [10]: 4.69 µM (active)
AC50 [11]: 2.13 µM (active)
AC50 [12]: 39 µM (active)

Oc1ccc(Br)cc1CNc1cccc2cccnc12
AC50 (INS1): 3.24 µM (active)
IC50 [13]: 34.6 µM (active)

Cc1ccc(N/C=C(\C#N)S(=O)(=O)c2ccccc2)cc1
EC50 (Insulin-degrading enzyme [14]): > 54.7 µM (inactive)
EC50 (HEK293 [15]): > 56 µM (inactive)
EC50 (Insulin-degrading enzyme [16]): > 54.7 µM (inactive)
IC50 (HEK293 [17]): > 89.3 µM (inactive)

CC1=C(C(=O)OCc2ccccc2)C(c2ccc(Br)cc2)NC(=O)N1CCCCCC(=O)O (centres undefined)
EC50 (Insulin-degrading enzyme [14]): > 54.7 µM (inactive)
EC50 (HEK293 [15]): > 55.9 µM (inactive)
EC50 (Insulin-degrading enzyme [16]): > 54.7 µM (inactive)
IC50 (HEK293 [17]): > 89.2 µM (inactive)

COc1ccc(-c2cc(NC(C)=O)c3ncc(-c4cccc(C(F)(F)F)c4)n3c2)c(OC)c1
EC50 (Melanocortin receptor 4): > 89.2 µM (inactive)

CCCC#Cc1ccc([C@@H]2[C@H](CO)N3CCCCN(S(=O)(=O)Cc4ccccc4)C[C@@H]23)cc1
AC50 [18]: 61.3 µM (active)
AC50 [19]: 12.4 µM (active)
AC50 [20]: 2.54 µM (active)
AC50 [21]: 42.6 µM (active)
AC50 (Paired box protein Pax-8): 29.2 µM (active)

C[C@@H]1CN([C@@H](C)CO)C(=O)Cc2cc(NC(=O)NC3CCCCC3)ccc2O[C@@H]1CN(C)S(=O)(=O)c1ccc(Cl)cc1
AC50 [12]: 61.1 µM (active)

Cc1nn(C)c(Oc2ccccc2)c1/C=N/OCc1ccc(C(=O)OC(C)(C)C)cc1 [FENPYROXYMATE]
AC50 [22]: 44.7 µM (inconclusive)

O=C1C=C2C(=CCOC2O)O1 (centres undefined) [PATULIN]
GI50 (P388/ADR): 0.318 µM (active)
AC50 [22]: 12.6 µM (inconclusive)
GI50 (P388): 0.135 µM (active)
GI50 (SN12K1): 0.998 µM (active)
